Marks after values point to notes of the source that are not given here.
How the values were obtained:
Assay type in all cases: in vivo, rat
[1] = system: villus height and crypt depth in the jejunum and ileum; assay: Histologic and morphometric measurements of villus height and crypt depth in jejunum and ileum; settings: GLP-2 treatment
Experimental: (§1) Young male Wistar rats (50-60 g) were obtained from Charles River (L'Arbresle, France) and maintained in a temperature controlled room (22±1° C.) with a 12 h light/12 h dark cycle. They were given free access to a standard rodent diet (A03; UAR, Epernay sur Orge, France) and to water during a 5 days acclimatization period. Three experiments were conducted. (1) In the first experiment, rats were fed ad libitum or fasted for 1 or 2 days. At the end of the fasting period, rats were anesthetized with intraperitoneal injection of urethane (1.7 g/kg body weight, Sigma Aldrich, Lyon, France) and sacrificed. (2) In the second experiment, animals were randomly divided into control and GLP-2 treated groups (n=26-30 per group). Injections of saline (400 μL) or GLP-2 (20 μg/400 μL of saline) every 12 h started at day 0 and continued until the end of the experiment. At day 4, half of each group was deprived of food for 2 days. At day 6, animals were sacrificed as described. (3) In the last experiment, rats were allocated as described in experiment 2. Control and GLP-2 treated groups (n=20 per group) were divided into 2 groups of fed (n=5) and starved rats (n=15). Saline and GLP-2 injections continued until the sacrifice of the rats. At day 6, 5 rats from the fed and the 48 h-fasted groups treated or not with GLP-2 were sacrificed as described. The remaining fasted animals from the control and GLP-2 treated groups were refed ad libitum from day 6 for 6 or 24 h. After refeeding, rats were sacrificed as described.
Tissue samples from jejunum and ileum were fixed in 10% formaldehyde buffered with Na2CO3 (10 g/L) and processed for villus height and crypt depth measurements. Treatment designation of slides was blinded at the time of measurement.

Cathepsin B = Cathepsin B activity in the ileum; settings: compared with untreated rats, P<0.002
Experimental: (§2) Young male Wistar rats (50-60 g) were obtained from Charles River (L'Arbresle, France) and maintained in a temperature controlled room (22±1° C.) with a 12 h light/12 h dark cycle. They were given free access to a standard rodent diet (A03; UAR, Epernay sur Orge, France) and to water during a 5 days acclimatization period. Three experiments were conducted. (1) In the first experiment, rats were fed ad libitum or fasted for 1 or 2 days. At the end of the fasting period, rats were anesthetized with intraperitoneal injection of urethane (1.7 g/kg body weight, Sigma Aldrich, Lyon, France) and sacrificed. […]
(§3) The five cm pieces of jejunum and/or ileum were immediately homogenized using a polytron homogenizer in a 10 mmol/L phosphate buffer (pH 7.4) containing 50 mmol/L KCl, 1 mmol/L EDTA and 0.25 mol/L sucrose as described previously.^30 Homogenates were then centrifuged at 1,000 g (10 minutes, 4° C.). […] Cathepsin B and cathepsin B+L+S activities were determined using the fluorogenic substrates Z-arginine-arginine-AMC (ZAA-AMC, 50 μmol/L, Sigma), Z-phenylalanine-arginine-AMC (ZPA-AMC, 30 μmol/L, Sigma), respectively.^30 Neutral pH reducing the cathepsin L activity, the bulk of the cathepsin B+L+S activity measured with ZPA-AMC at pH 7.0 reflects the cathepsin B+S activity. […] Fluorescence was measured continuously at 380 nm excitation and 440 nm emission wavelengths. […]

proteasome = assay: Peptidase activities of the proteasome in the small intestine of fed and starved rats
Experimental: as §2
Proteins from pieces of jejunum and/or ileum were homogenized using a polytron homogenizer, in ice-cold buffer (pH 7.5) containing 50 mmol/L Tris/HCl, 5 mmol/L MgCl2, 250 mmol/L sucrose, 10 mmol/L ATP, 1 mmol/L DTT, 10 μg/mL aprotinin, 10 μg/mL leupeptin, 10 μg/mL antipain, 10 μg/mL pepstatin A, and 0.2 mmol/L phenylmethylsulphonylfluoride (PMSF). […] The protein content of the proteasome preparation was determined using the Biorad protein assay following the manufacturer instructions. […] The accumulation of AMC at 37° C. during 45 minutes was measured continuously as described for cathepsin activities measurements. The difference between arbitrary fluorescence units recorded with or without 40 μmol/L […]of the proteasome inhibitor MG132 (Affiniti) in the reaction medium was calculated. […]

small intestinal mass = assay: Small intestinal mass recovery after 48 h starvation and 6 or 24 h refeeding
Experimental: as §1
(§4) The entire small intestine was rapidly excised, rinsed three times with ice-cold PBS, blotted and weighed. Ten cm caudal to the pyloric sphincter and ten cm cranial to the ileo-caecal junction were taken and discarded. Jejunum and ileum were excised, weighed, and divided in small pieces of 5 cm. The first piece was immediately processed for cathepsin activities. The remaining pieces were frozen in liquid nitrogen, and stored at −80° C. until further analyses. In experiment 3, skeletal muscles (EDL, gastrocnemius and tibialis anterior) were also carefully dissected and weight.

[2] = system: Cathepsin (B, B+S, B+L+S and D); assay: Cathepsin activities in the jejunum of fed and starved rats
Experimental: as §2, §3

[3] = system: starvation-induced body weight loss and intestine atrophy; assay: Starvation-induced body weight loss and intestine atrophy in saline- or GLP-2-injected rats (experiment 2); settings: for Body weight / Ileum mass / Jejunum mass / Small intestine mass: GLP-2 20 μg every 12 h, mean ± SEM
Experimental: as §1, §4
(§5) Data are expressed as means±SEM. One-way or two-way ANOVA were used to address for fasting effect in experiment 1 and for fasting and GLP-2 effects experiment 2 and 3. A posteriori PLSD Fisher's test was performed in order to assess for differences among groups. P values <0.05 were considered statistical significance and P values <0.10 were considered statistical tendency.

[4] = system: starvation-induced skeletal muscle atrophy; assay: Starvation-induced skeletal muscle atrophy (experiment 3); settings: for EDL mass / gastrocnemius mass / tibialis anterior mass: GLP-2, mean ± SEM, n=5
Experimental: as §1, §4, §5

[5] = system: Tibialis anterior, gastrocnemius and EDL muscle masses; assay: Skeletal muscle mass recovery after 48 h starvation and 24 h refeeding
Experimental: as §1, §4

Cathepsin B+L+S = Cathepsin B+L+S activity in the ileum; settings: compared with untreated rats, P<0.0005
Experimental: as §2, §3

[6] = GLP-2 effect, two-way ANOVA, P<0.0001

## HGDGSFSDEMNTILDNLATRDFINWLIQTKITD (Rat GLP-2 sequence with an Ala-->Gly exchange in position 2) [Rat recombinant GLP-2, [Ala] in position 2 substituted by [Gly] to make the peptide resistant to DPP IV degradation]
[1]
  villus height in the ileum: no effect
[1]; following fasting
  crypt depth in the ileum: did not inhibit the reduction
[1]; following starvation
  crypt depth in the jejunum: blocked the decrease
  reduction of the villus height in the jejunum: −13%
Cathepsin B
  decrease of cathepsin B activity: −43%
proteasome; jejunum or ileum, daily administration of GLP-2
  Peptidase activities of the proteasome: not modified
proteasome; jejunum, following fasting
  increase of the chymotrypsin- and the trypsin-like activities: did not block the increase
Small intestinal mass; after 6 h of refeeding, P<0.001
  small intestinal atrophy: 15%
Small intestinal mass; after 24 h of refeeding
  small intestinal atrophy: totally absent
Small intestinal mass; after 24 h of refeeding, GLP-2 treated rats
  small intestine recovery: totally recovered
Small intestinal mass; refed rats after 48 h starvation, compared to saline injected animals
  recovery of the small intestinal mass: accelerated recovery
[2]
  cathepsin activities: blocked the increase
[3]; GLP-2-treated starved rats vs. saline injected-fed rats, P<0.005
  atrophy of the jejunum: −12%
[3]; [6]
  increase of jejunal mass: 21%
  increase of total small intestinal mass: 22%
[3]; GLP-2 effect, two-way ANOVA, P<0.005
  increase of ileal mass: 17.5%
[3]; GLP-2 treated group, starved vs fed
  starvation-induced loss of body weight: −22%
[3]; GLP-2 treated-starved rats compared with saline injected-fed rats
  whole small intestine and ileum mass: similar
[3]; fed rats, day 6
  Body weight: 112.5 ± 1.7^a g
[3]; fed rats
  Ileum mass: 1.24 ± 0.07^b g
  Jejunum mass: 3.45 ± 0.08^b g
  Small intestine mass: 5.57 ± 0.17^b g
[3]; rats starved 2 days
  Body weight: 87.2 ± 1.0^b g
  Ileum mass: 1.02 ± 0.05^a g
  Jejunum mass: 2.62 ± 0.09^d g
  Small intestine mass: 4.56 ± 0.11^a g
[3]; starved rats receiving GLP-2
  reduction of the atrophy of the small intestine induced by starvation: 16%
[4]; fed rats
  EDL mass: 45.7 ± 0.9^a mg
  gastrocnemius mass: 0.513 ± 0.013^a g
  tibialis anterior mass: 195.7 ± 5.0^a mg
[4]; following 2 days of starvation
  skeletal muscle loss (tibialis anterior, gastrocnemius, EDL): did not prevent
[4]; starved rats (48 h)
  EDL mass: 37.2 ± 0.9^b mg
  gastrocnemius mass: 0.415 ± 0.006^b g
  tibialis anterior mass: 156.6 ± 2.0^b mg
[5]; after 24 h of refeeding
  EDL muscle recovery: totally recovered
  Tibialis anterior muscle recovery: totally recovered
[5]; after 24 h of refeeding, compared to GLP-2 treated fed rats, P<0.05
  gastrocnemius atrophy: 9%
[5]; refeeding after 48 h starvation
  skeletal muscle recovery: enhanced
Cathepsin B+L+S
  decrease of cathepsin B+L+S activity: −50%

Source: patent US20120270786A1, “INTESTINE AND MUSCLE RECOVERY” (I.N.R.A., priority 2009, published 2012)
